From PubChem BioAssay (NCI) come the findings set out here.

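Where inhibition never reached the appropriate level, the endpoint shown equals the highest concentration tested. Otherwise, values were interpolated linearly from a five-concentration, 48-hour dose response in 96-well plates. GI50 is the concentration that inhibits growth by half. TGI marks complete inhibition of growth.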

Among the test systems are CAKI-1 renal; HOP-92 NSCLC; IGROV1 ovarian; LOX IMVI melanoma; MOLT-4 leukemia; OVCAR-5 ovarian; SF-295 CNS; SK-MEL-5 melanoma; SW-620 colon; UACC-257 melanoma.
Holding throughout (assay): NCI-60 cell line screen, 48 h

Consider `O=C(CCCn1ccnc1[N+](=O)[O-])NCCn1cncc1[N+](=O)[O-]`, for which the TGI with CAKI-1 renal, with HOP-92 NSCLC, in the experiment with IGROV1 ovarian, in the experiment with LOX IMVI melanoma, in the experiment with MOLT-4 leukemia and with OVCAR-5 ovarian was over 100 µM in each case. The TGI in the experiment with SF-295 CNS, in the experiment with SK-MEL-5 melanoma, in the experiment on SW-620 colon and with UACC-257 melanoma was over 100 µM each time.

On to `CC1OC(n2cc(F)c(=O)[nH]c2=O)C=CC1O` (stereo not given), for which the TGI in the experiment on CAKI-1 renal was over 100 µM; with HOP-92 NSCLC it was over 100 µM; in the experiment with IGROV1 ovarian, over 100 µM; in the experiment on LOX IMVI melanoma, over 64.3 µM; in the experiment with MOLT-4 leukemia it was over 100 µM; with OVCAR-5 ovarian it was over 100 µM. Also, the TGI in the experiment on SF-295 CNS is over 100 µM; in the experiment with SK-MEL-5 melanoma, over 100 µM; with SW-620 colon it was over 71.6 µM; with UACC-257 melanoma, over 100 µM.

Regarding `CC(C)c1ccc(Nc2ccc3c(OCCCN4CCN(C)CC4)cccc3n2)cc1`, the GI50 in the experiment with CAKI-1 renal is 12.6 µM; in the experiment with HOP-92 NSCLC it was 10.6 µM; in the experiment on IGROV1 ovarian it was 16.1 µM; in the experiment on LOX IMVI melanoma it was 1.86 µM; in the experiment on MOLT-4 leukemia, 2.92 µM; in the experiment with OVCAR-5 ovarian, 15.6 µM. Further, the GI50 with SF-295 CNS is 3.63 µM; in the experiment with SK-MEL-5 melanoma, 15.3 µM; with SW-620 colon it was 8.9 µM; in the experiment on UACC-257 melanoma, 5.65 µM. Further, the TGI with CAKI-1 renal was 28.8 µM; in the experiment with HOP-92 NSCLC, 27.4 µM; in the experiment on IGROV1 ovarian, 32.6 µM; in the experiment on LOX IMVI melanoma it was 3.54 µM; in the experiment on MOLT-4 leukemia, 8.2 µM; in the experiment with OVCAR-5 ovarian, 31.2 µM. Also, the TGI with SF-295 CNS turned out to be 15.3 µM; in the experiment on SK-MEL-5 melanoma it was 30.2 µM; with SW-620 colon it was 22.9 µM; with UACC-257 melanoma, 16.2 µM.

For the compound `C/C(=C\CCc1ccoc1)CC/C=C(\C)CCCC1=CC(=O)OC1`, the GI50 in the experiment on CAKI-1 renal is 5.01 µM; in the experiment with HOP-92 NSCLC, 2.09 µM; with IGROV1 ovarian it was 19.5 µM; in the experiment with LOX IMVI melanoma, 4.84 µM; in the experiment on MOLT-4 leukemia, 3.94 µM; in the experiment on OVCAR-5 ovarian, 12.5 µM. Also, the GI50 is 3.79 µM with SF-295 CNS, 2.55 µM with SK-MEL-5 melanoma, 12.1 µM in the experiment on SW-620 colon and 2.81 µM in the experiment on UACC-257 melanoma. Further, the TGI in the experiment on CAKI-1 renal is over 100 µM; with HOP-92 NSCLC it was 13 µM; in the experiment on IGROV1 ovarian, over 100 µM; in the experiment with LOX IMVI melanoma, 17.2 µM; in the experiment on MOLT-4 leukemia, 15.4 µM; in the experiment with OVCAR-5 ovarian, 68.9 µM. Besides, the TGI with SF-295 CNS was 18 µM; in the experiment with SK-MEL-5 melanoma, 6.66 µM; with SW-620 colon it was over 100 µM; in the experiment on UACC-257 melanoma, 11.3 µM.

Turning to `COc1cc(Nc2cn[nH]c2-c2ccc(Cl)cc2)cc(OC)c1OC`, the GI50 is 2.34 µM in the experiment with CAKI-1 renal; 2.73 µM in the experiment with HOP-92 NSCLC; 4.6 µM in the experiment on IGROV1 ovarian; 5.62 µM in the experiment on LOX IMVI melanoma; 3.65 µM in the experiment with MOLT-4 leukemia; 15.9 µM in the experiment on OVCAR-5 ovarian. The GI50 in the experiment with SF-295 CNS was 2.18 µM; in the experiment on SK-MEL-5 melanoma, 3.58 µM; in the experiment on SW-620 colon it was 3.87 µM; with UACC-257 melanoma, 15.7 µM. Further, the TGI was 26.2 µM in the experiment with CAKI-1 renal; 33.4 µM in the experiment on HOP-92 NSCLC; 69.6 µM with IGROV1 ovarian; 20.7 µM in the experiment with LOX IMVI melanoma; over 80.2 µM with MOLT-4 leukemia; over 77.1 µM in the experiment with OVCAR-5 ovarian. In addition, the TGI in the experiment on SF-295 CNS was 11.3 µM; in the experiment with SK-MEL-5 melanoma it was 14.6 µM; in the experiment on SW-620 colon, 23.7 µM; in the experiment on UACC-257 melanoma, over 83.6 µM.

In the case of `Cc1ccc(S(=O)(=O)NCC2CCCCC2=O)cc1` (stereo not given), the TGI in the experiment with CAKI-1 renal was 67.5 µM; in the experiment with HOP-92 NSCLC it was 97.2 µM; with IGROV1 ovarian, over 100 µM; in the experiment with LOX IMVI melanoma, over 100 µM; in the experiment with MOLT-4 leukemia, over 100 µM; in the experiment on OVCAR-5 ovarian it was over 100 µM. Also, the TGI in the experiment with SF-295 CNS was over 100 µM; in the experiment on SK-MEL-5 melanoma, over 100 µM; with SW-620 colon it was over 100 µM; in the experiment with UACC-257 melanoma it was 57.7 µM.

For `CCN(CC)CCOc1ccc(/C=C(\C#N)c2ccc(OCCN(CC)CC)cc2)cc1`, the TGI was over 60.1 µM with CAKI-1 renal; 55.4 µM with HOP-92 NSCLC; over 52.4 µM with IGROV1 ovarian; 25.5 µM in the experiment with LOX IMVI melanoma; 38.2 µM with MOLT-4 leukemia; over 66 µM in the experiment with OVCAR-5 ovarian. In addition, the TGI with SF-295 CNS worked out at 28 µM; with SK-MEL-5 melanoma, 15.9 µM; in the experiment on SW-620 colon, 29.6 µM; with UACC-257 melanoma, 31.3 µM.

`Cc1c2cccnc2c(C)c2c1c1cc(CO)ccc1n2C`: the GI50 in the experiment with CAKI-1 renal was 2.06 µM; with HOP-92 NSCLC, 2.1 µM; with IGROV1 ovarian, 0.579 µM; in the experiment with LOX IMVI melanoma it was 1.5 µM; in the experiment with MOLT-4 leukemia, 1.64 µM; in the experiment with OVCAR-5 ovarian it was 0.618 µM. Also, the GI50 with SF-295 CNS was 1.74 µM; in the experiment with SK-MEL-5 melanoma, 1.75 µM; with SW-620 colon, 1.25 µM; in the experiment with UACC-257 melanoma it was 1.51 µM. Further, the TGI in the experiment on CAKI-1 renal amounted to 10.5 µM; in the experiment with HOP-92 NSCLC it was 7.31 µM; with IGROV1 ovarian, 9.34 µM; in the experiment on LOX IMVI melanoma, 4.82 µM; in the experiment on MOLT-4 leukemia, 22.5 µM; with OVCAR-5 ovarian, 8.78 µM. Further, the TGI in the experiment with SF-295 CNS is 10.1 µM; with SK-MEL-5 melanoma, 5.12 µM; in the experiment on SW-620 colon it was 14.5 µM; with UACC-257 melanoma, 4.25 µM.

For `Cc1cc(Br)cc(C)c1NC(=O)C(=O)C(C(=O)c1ccc2ccccc2c1)C1OC(=O)c2ccccc21` (stereo not given), the TGI worked out at 51.1 µM in the experiment on CAKI-1 renal; 6.9 µM in the experiment on HOP-92 NSCLC; 51.8 µM with IGROV1 ovarian; 31.1 µM with LOX IMVI melanoma; 13.4 µM with MOLT-4 leukemia; 19.7 µM in the experiment on OVCAR-5 ovarian. Also, the TGI in the experiment with SF-295 CNS was determined as 14.9 µM; in the experiment with SK-MEL-5 melanoma, 23.8 µM; with SW-620 colon, 28.1 µM; in the experiment on UACC-257 melanoma, 17.5 µM.

As for `C/C1=C\CC[C@@]2(C)O[C@@H]2[C@H]2OC(=O)[C@@H](CN(C)C)[C@@H]2CC1`, the GI50 with CAKI-1 renal is 13.2 µM; in the experiment on HOP-92 NSCLC it was 9.87 µM; with IGROV1 ovarian, 17.9 µM; in the experiment with LOX IMVI melanoma, 10.2 µM; with MOLT-4 leukemia it was 2.89 µM; in the experiment with OVCAR-5 ovarian, 18.6 µM. For the same compound, the GI50 in the experiment with SF-295 CNS was 32.8 µM; with SK-MEL-5 melanoma, 8.14 µM; in the experiment on SW-620 colon it was 3.76 µM; with UACC-257 melanoma, 12.8 µM. Further, the TGI in the experiment with CAKI-1 renal was determined as 31.3 µM; with HOP-92 NSCLC, 29.7 µM; in the experiment with IGROV1 ovarian it was 34.2 µM; in the experiment on LOX IMVI melanoma, 29.9 µM; in the experiment on MOLT-4 leukemia, 9.82 µM; in the experiment with OVCAR-5 ovarian, 37.1 µM. In addition, the TGI in the experiment on SF-295 CNS is over 100 µM; in the experiment on SK-MEL-5 melanoma, 29.7 µM; with SW-620 colon, over 100 µM; with UACC-257 melanoma, 28.4 µM.
